Where “and” joins values, the source holds several entries; their conditions need not be identical. Equal values may be shown once.
System: 953936-095-R-J2-PDC spheroids with HUVEC/MSC, viability
Test: Anticancer human tumor 953936-095-R-J2-PDC patient-derived cervical squamous cell carcinoma cell line growth inhibition [PI3K]
Conditions: for viability, T/C: stronger effect = lower value
From the text: Combinatorial screen of targeted agents with the PI3K inhibitors inavolisib, alpelisib, duvelisib, and copanlisib in multi-cell type tumor spheroids
A high-throughput screen of multi-cell type tumor spheroids was designed to identify active combinations of targeted small molecules and PI3K pathway inhibitors. Complex spheroids include a stromal component modeled by human endothelial cells (HUVEC) and fibroblasts modeled by human mesenchymal stem cells (MSCs). The concentration ranges selected for each drug and investigational agent were based upon clinically achievable concentrations if the clinical Cmax of the agent was known.
Compounds. The drugs and investigational agents: inavolisib (NSC800729), alpelisib (NSC765974), duvelisib (NSC772469), copanlisib (NSC816437), ipatasertib (NSC767898), afuresertib (NSC778305), talazoparib (NSC767125), sapanisertib (NSC764658), selumetinib (NSC741078), tovorafenib (DAY101, NSC766906), vemurafenib (NSC761431), ravoxertinib (NSC781343), sotorasib (NSC818433), MRTX1133 (NSC 836407), abemaciclib (NSC 768073), palbociclib (NSC758247), venetoclax (NSC 766270), SY5609 (NSC837396), enzalutamide (NSC755605), and darolutamide (NSC825331), were obtained from the National Cancer Institute (NCI) Developmental Therapeutics Program Chemical Repository. The FDA-approved anticancer drug set is available from the NCI Developmental Therapeutics Program. […] The stock solutions were prepared in dimethyl sulfoxide (DMSO, Sigma-Aldrich, St. Louis, MO, cat. D2650) at 800-fold the tested concentration and stored at -70 degrees C prior to their use. All drugs and investigational agents were tested over a range starting from a high concentration at or near the clinical Cmax and decreasing in half-log increments. If the clinical Cmax for an agent had not been determined, the highest concentration tested was 10 microM.
Cell Culture. All cells were maintained in an incubator at 37 degrees C and 5% CO2 with 95% humidity. The PDC lines were cultured according to standard operating procedures established by the NCI PDMR (https://pdmr.cancer.gov/sops/default.htm). All PDCs were thawed and cultured in Matrigel-coated flasks prepared with a working solution of 1X Ham's F-12 nutrient mix, without supplementation (Invitrogen, Waltham, MA, cat. 11765054), 100 U/mL penicillin-streptomycin (Invitrogen, cat. 15140122), and 2.5% Matrigel (Corning Inc., Corning, NY, cat. 354248) for the first three passages. The 354836-022-R-J1-PDC, 475296-252-R-J1-PDC, and 997726-040-R-J2-PDC lines were cultured in 6A media, which includes advanced DMEM/F-12 (Thermo Fisher Scientific, cat. 12634028), 10 mM HEPES (Thermo Fisher Scientific, cat. 15630080), 1X GlutaMAX supplement (Thermo Fisher Scientific, cat. 35050061), 0.1 mg/mL primocin (InvivoGen, San Diego, CA, cat. ant-pm-2), 10% defined fetal bovine serum, heat inactivated (HyClone Laboratories Inc., Logan, UT, cat. SH30070.03HI), 50% L-WRN conditioned media (ATCC, cat. CRL-3276), 1.25 mM N-Acetyl-L-cysteine (Sigma-Aldrich, cat. A9165), 10 mM nicotinamide (Sigma-Aldrich, cat. N0636), 1X B-27 supplement (Thermo Fisher Scientific, cat. 17504044), 1X N-2 supplement (Thermo Fisher Scientific, cat. 17502048), and 10 microM Y-27632 dihydrochloride (Tocris Bioscience, Bristol, United Kingdom, cat. 1254). The 624824-186-R-J2-PDC line was cultured in 6C/Colon 1B media, which includes all 6A media components plus 50 ng/mL human EGF recombinant protein (Thermo Fisher Scientific, cat. PHG0311). […]

[1] = compound alone, run of 06/12/2023
[2] = compound alone, run of 06/13/2023
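Further: spheroids exposed to compounds for seven days before read-out.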

Row | SMILES | viability, T/C (compound 0.000316 µM) | viability, T/C (compound 0.001 µM) | viability, T/C (compound 0.00316 µM) | viability, T/C (compound 0.01 µM) | viability, T/C (compound 0.0316 µM) | viability, T/C (compound 0.1 µM) | IC50 (curve of compound) | viability, T/C (compound 0.316 µM) | viability, T/C (compound 1 µM) | viability, T/C (compound 3.16 µM) | viability, T/C (compound 10 µM) | IC50 [1] | IC50 [2] | viability, T/C (compound 0.00949 µM) | viability, T/C (compound 0.03 µM) | viability, T/C (compound 0.0949 µM) | viability, T/C (compound 0.3 µM) | viability, T/C (compound 0.949 µM) | viability, T/C (compound 3 µM)
1 | CC(=O)c1c(C)c2cnc(Nc3ccc(N4CCNCC4)cn3)nc2n(C2CCCC2)c1=O | 95.2% [middle of 4 runs] | 96.6% [middle of 4 runs] | 103% [middle of 4 runs] | 97.6% [middle of 4 runs] | 96.6% [middle of 4 runs] | 95.7% [middle of 4 runs] | > 0.1 µM | – | – | – | – | – | – | – | – | – | – | – | –
2 | CC(C)NCC(C(=O)N1CCN(c2ncnc3c2C(C)CC3O)CC1)c1ccc(Cl)cc1 (stereo not given) | – | – | – | – | 92.7% [middle of 4 runs] | 91.5% [middle of 4 runs] | 1.02 µM [middle of 4 runs] | 80.4% [middle of 4 runs] | 50.5% [middle of 4 runs] | 24.3% [middle of 4 runs] | 15.2% [middle of 4 runs] | – | – | – | – | – | – | – | –
3 | CC(C)n1nc(-c2ccc3oc(N)nc3c2)c2c(N)ncnc21 | 91% [middle of 4 runs] | 92.7% [middle of 4 runs] | 88.9% [middle of 4 runs] | 73.4% [middle of 4 runs] | 50.6% [middle of 4 runs] | 17.6% [middle of 4 runs] | 32.4 nM [middle of 4 runs] | – | – | – | – | – | – | – | – | – | – | – | –
4 | CC(Cn1ccc(-c2ccc(C#N)c(Cl)c2)n1)NC(=O)c1cc(C(C)O)[nH]n1 (stereo not given) | – | – | – | – | 91.2% [middle of 4 runs] | 96.5% [middle of 4 runs] | > 10 µM | 97.1% [middle of 4 runs] | 108% and 101% (2×) and 96.8% | – | 99.4% (2×) and 105% and 106% | – | – | – | – | – | – | – | –
5 | CC(Nc1ccc2c(c1)OCCn1cc(N3C(=O)OCC3C(F)F)nc1-2)C(N)=O (stereo not given) | – | – | 104% [middle of 8 runs] | 92.8% [middle of 8 runs] | 75.9% [middle of 8 runs] | 56.1% [middle of 8 runs] | – | 36.3% [middle of 8 runs] | 23.6% [middle of 8 runs] | – | – | 140 nM [middle of 7 runs] | – | – | – | – | – | – | –
6 | CC(Nc1ncnc2nc[nH]c12)c1cc2cccc(Cl)c2c(=O)n1-c1ccccc1 (stereo not given) | – | – | – | – | 97.8% [middle of 8 runs] | 93.8% [middle of 8 runs] | – | 92.2% [middle of 8 runs] | 85.9% [middle of 8 runs] | 80% [middle of 8 runs] | 65% [middle of 8 runs] | – | > 10 µM | – | – | – | – | – | –
7 | CC1(C)CCC(CN2CCN(c3ccc(C(=O)NS(=O)(=O)c4ccc(NCC5CCOCC5)c([N+](=O)[O-])c4)c(Oc4cnc5[nH]ccc5c4)c3)CC2)=C(c2ccc(Cl)cc2)C1 | – | – | – | – | 96.8% [middle of 4 runs] | 95.1% [middle of 4 runs] | 7.57 µM [middle of 4 runs] | 92.7% [middle of 4 runs] | 102% [middle of 4 runs] | – | 32.5% [middle of 4 runs] | – | – | – | – | – | – | – | –
8 | CC1(C)CCC(Nc2ncc(C(F)(F)F)c(-c3c[nH]c4c(P(C)(C)=O)c(C#N)ccc34)n2)CN1 (stereo not given) | – | – | – | – | 51.7% [middle of 4 runs] | 51.8% [middle of 4 runs] | – | 53.5% [middle of 4 runs] | 53.4% [middle of 4 runs] | 55% and 54.4% (2×) and 52.7% | 7.36% [middle of 4 runs] | – | – | – | – | – | – | – | –
9 | CCCS(=O)(=O)Nc1ccc(F)c(C(=O)c2c[nH]c3ncc(-c4ccc(Cl)cc4)cc23)c1F | – | – | – | – | 94.5% [middle of 4 runs] | 106% (2×) and 102% and 103% | 5.69 µM [middle of 4 runs] | 113% [middle of 4 runs] | 113% [middle of 4 runs] | 105% [middle of 4 runs] | 1.33% [middle of 4 runs] | – | – | – | – | – | – | – | –
10 | CCN1CCN(Cc2ccc(Nc3ncc(F)c(-c4cc(F)c5nc(C)n(C(C)C)c5c4)n3)nc2)CC1 | – | – | 98.4% [middle of 4 runs] | 96.4% [middle of 4 runs] | 93.1% [middle of 4 runs] | 100% and 101% (2×) and 89.5% | > 1 µM | 88.2% [middle of 4 runs] | 85.2% [middle of 4 runs] | – | – | – | – | – | – | – | – | – | –
11 | CNC(=O)c1ccc(N2C(=S)N(c3ccc(C#N)c(C(F)(F)F)c3)C(=O)C2(C)C)cc1F | – | – | – | – | 106% (2×) and 93.7% and 103% | 98% [middle of 4 runs] | > 10 µM | 93.5% [middle of 4 runs] | 102% (2×) and 112% and 107% | – | 88.5% [middle of 4 runs] | – | – | – | – | – | – | – | –
12 | COc1c(OCCCN2CCOCC2)ccc2c3n(c(=NC(=O)c4cnc(N)nc4)nc12)CCN3 | – | – | 85% [middle of 8 runs] | 71.1% [middle of 8 runs] | 39.5% [middle of 8 runs] | 17.8% [middle of 8 runs] | – | 5.89% [middle of 8 runs] | 1.69% [middle of 7 runs] | – | – | – | 22.6 nM [middle of 6 runs] | – | – | – | – | – | –
13 | C[C@@H](NC(=O)c1ncnc(N)c1Cl)c1ncc(C(=O)Nc2cc(C(F)(F)F)c(Cl)cn2)s1 | – | – | – | – | 105% (2×) and 98.5% and 118% | 104% (3×) and 103% | > 10 µM | 110% [middle of 4 runs] | 115% [middle of 4 runs] | 108% [middle of 4 runs] | 102% [middle of 4 runs] | – | – | – | – | – | – | – | –
14 | Cc1nc(NC(=O)N2CCCC2C(N)=O)sc1-c1ccnc(C(C)(C)C(F)(F)F)c1 (stereo not given) | – | – | – | – | 90% [middle of 8 runs] | 80.7% [middle of 8 runs] | – | 64.2% [middle of 8 runs] | 43.8% [middle of 8 runs] | 28.4% [middle of 8 runs] | 13.6% [middle of 8 runs] | 746 nM [middle of 8 runs] | – | – | – | – | – | – | –
15 | Cn1cnc2c(F)c(Nc3ccc(Br)cc3Cl)c(C(=O)NOCCO)cc21 | – | – | – | – | – | – | 1.01 µM [middle of 4 runs] | – | – | – | – | – | – | 90.5% (2×) and 83.8% and 88.8% | 81.4% [middle of 4 runs] | 72.3% [middle of 4 runs] | 66% [middle of 4 runs] | 54.8% [middle of 4 runs] | 37.9% [middle of 4 runs]
16 | Cn1nccc1Nc1nccc(-c2ccn(C(CO)c3ccc(Cl)c(F)c3)c(=O)c2)n1 (stereo not given) | – | – | – | – | 90.7% [middle of 4 runs] | 97.3% [middle of 4 runs] | > 10 µM | 91.1% [middle of 4 runs] | 90% [middle of 4 runs] | 82.7% [middle of 4 runs] | 77.9% [middle of 4 runs] | – | – | – | – | – | – | – | –
17 | Cn1ncnc1[C@H]1c2n[nH]c(=O)c3cc(F)cc(c23)N[C@@H]1c1ccc(F)cc1 | 97.2% [middle of 4 runs] | 101% [middle of 4 runs] | 103% [middle of 4 runs] | 115% and 101% (2×) and 97.3% | 101% (2×) and 96.9% and 92.6% | 94.8% [middle of 4 runs] | > 0.1 µM | – | – | – | – | – | – | – | – | – | – | – | –

Source: PubChem BioAssay AID1963971 (Molecular Pharmacology Branch, DTP, NCI, 2024)
